Results reported in patent US7973219B2, “Method for producing transgenic plants resistant to weed control compounds which disrupt the porphyrin pathways of plants” (Sumitomo Chemical Company, Limited, priority 1998, dated 2011).

Test system: E. coli BT3/pACYCSP strain
Experiment: Growth of E. coli BT3/pACYCSP with herbicidal compound (absorbance at 600 nm)
Format: cell-based, Escherichia coli
Settings: 18 hours culture, A600, medium without compound = 1, Table 1
Source text: According to the description of Gibson, L. C. D. et al., Proc. Natl. Acad. Sci. USA, 92; p 1941 (1995), the DNA fragment containing bchH gene prepared in Example 1 was digested with the restriction enzymes NdeI and BglII. The resultant DNA fragment was inserted between NdeI restriction site and BamHI restriction site of expression vector pET11a (manufactured by Stratagene) to obtain plasmid pETBCH (FIG. 1). This plasmid pETBCH was introduced into E. coli BL21(DE3) strain competent cells (manufactured by Stratagene) according to the manual attached to the competent cells to obtain E. coli BL21(DE3)/pETBCH strain. The strain was inoculated into 1.5 ml LB liquid culture medium (1% tryptone, 0.5% yeast extract, 0.5% NaCl) containing 100 μg/ml ampicillin in a tube (14×10 mm), and the tube was covered with aluminum foil (hereinafter referred to as dark conditions), cultured with shaking at 37° C. under light of fluorescent lamp (about 8000 lux). When the absorbance at 600 nm of the liquid culture medium became about 0.6, isopropyl β-D-thiogalactopyranoside (IPTG) was added to the liquid culture medium so that the final concentration was 0.4 mM, and the culture was continued for about additional 20 hours. […] In contrast to this, when E. coli BL21(DE3)/pETBCH strain was cultured according to the same manner (with IPTG) except that the tube was not covered with aluminum foil (hereinafter referred to as light conditions), E. coli grew and turned red as above.
The plasmid pSPPO-P was digested with restriction enzyme PshBI, the resultant DNA fragment was blunted by using T4 DNA polymerase and further digested with SphI to isolate the DNA fragment containing chloroplast-type PPO gene of soybean and lac promoter. Then, the plasmid pACYC184 (manufactured by Nippon Gene) was digested with the restriction enzymes NruI and SphI to remove a fragment of 410 bp and the above DNA fragment was inserted instead to obtain plasmid pACYCSP (FIG. 2). […]
E. coli BT3/pACYCSP strain prepared in Example 3 was inoculated into YPT medium containing 10 or 1 ppm of PPO inhibitory type herbicidal compound represented by the above Structure 8, 10 μg/ml hemin, 50 μg/ml aminolevulinic acid, 15 μg/ml chloramphenicol and 10 μg/ml kanamycin, cultured under dark conditions or light conditions according to the same manner as in Example 2. […] Then, 18 hours after initiation of culture, the absorbance of the liquid culture medium was measured at 600 nm. By taking the absorbance of the medium without the herbicidal compound as 1, the relative value of the absorbance of the medium containing the herbicidal compound was calculated.

C#CCOc1cc(N2C(=O)C3=C(CCCC3)C2=O)c(F)cc1Cl [Structure 8]
Relative absorbance (in the dark, 1 ppm): 0.95 | Relative absorbance (in the dark, 10 ppm): 0.73 | Relative absorbance (in the light, 1 ppm): 0.25 | Relative absorbance (in the light, 10 ppm): 0.10
